Laboratory results published in publication PMC5373622, “Screening for AMPA receptor auxiliary subunit specific modulators” (PLoS ONE, 2017).
Values joined by “and” are separate entries in the source; they are usually repeats but may differ in a detail not shown here. Equal entries are not always repeated. Where two headings read alike, the source gives them in different places.

What was measured:
GluA1-stargazin = tested on: GluA1-stargazin; design: method as in PMID 16785437; conditions: published value; cited from earlier work
[1] = target: GluA2flip(Q)-CNIH3 (A2Q-C3 cells) (Homo sapiens, UniProt P42262); assay: Calcium flux (Fluo-8) compound CRC assay on A2Q-C3 cells
GluA2flip(Q)-CNIH3 (A2Q-C3 cells), sequence (P42262 25-883 isoform P42262-2 limits assumed): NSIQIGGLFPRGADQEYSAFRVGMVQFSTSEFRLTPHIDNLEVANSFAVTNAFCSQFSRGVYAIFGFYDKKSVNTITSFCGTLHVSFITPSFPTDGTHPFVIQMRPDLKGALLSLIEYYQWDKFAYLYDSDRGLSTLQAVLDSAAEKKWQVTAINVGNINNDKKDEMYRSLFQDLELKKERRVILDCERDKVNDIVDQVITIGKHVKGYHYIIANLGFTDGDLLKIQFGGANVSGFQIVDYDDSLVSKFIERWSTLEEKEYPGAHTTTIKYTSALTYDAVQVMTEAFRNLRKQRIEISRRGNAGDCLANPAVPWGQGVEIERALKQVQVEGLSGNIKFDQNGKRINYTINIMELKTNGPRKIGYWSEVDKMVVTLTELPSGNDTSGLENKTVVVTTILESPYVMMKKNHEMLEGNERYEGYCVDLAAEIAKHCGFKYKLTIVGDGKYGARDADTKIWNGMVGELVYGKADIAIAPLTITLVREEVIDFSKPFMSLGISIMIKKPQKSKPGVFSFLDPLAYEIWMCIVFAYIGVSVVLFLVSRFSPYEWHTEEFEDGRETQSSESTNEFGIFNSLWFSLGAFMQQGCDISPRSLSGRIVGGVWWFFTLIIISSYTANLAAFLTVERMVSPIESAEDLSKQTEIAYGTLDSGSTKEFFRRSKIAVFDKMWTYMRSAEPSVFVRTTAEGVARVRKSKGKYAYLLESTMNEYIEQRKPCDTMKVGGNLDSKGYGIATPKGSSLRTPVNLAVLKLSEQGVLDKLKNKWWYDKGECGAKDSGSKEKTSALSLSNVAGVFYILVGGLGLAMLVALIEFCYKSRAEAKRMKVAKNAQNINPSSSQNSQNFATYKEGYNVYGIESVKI
GluA2flip(Q)-CNIH3 (A2Q-C3 cells), sequence (Q8TBE1 whole entry partner): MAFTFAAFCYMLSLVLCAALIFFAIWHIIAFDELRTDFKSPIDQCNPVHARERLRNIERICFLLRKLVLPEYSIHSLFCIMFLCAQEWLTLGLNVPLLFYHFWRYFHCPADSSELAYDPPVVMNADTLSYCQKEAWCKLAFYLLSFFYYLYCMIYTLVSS
From the text: (§1) Cell lines used in the calcium flux assay were GluA2flip(Q)-FLAG + GSG1L-1D4 pTREt-Va dual expression in TetON HEK cell clone #20 (A2Q-GSG), GluA2flip(Q)-FLAG + CNIH3-1D4 pTREt-Va dual expression in TetON HEK cell clone #8 (A2Q-C3), GluA2flip(Q)-FLAG pTREt-Va in TetON HEK cell clone #5 (A2Q), and tethered GluA2flip(Q)-FLAG-stargazin [28] in pTREt-Va dual expression in TetON HEK cell clone #13 (A2Q-stg) (Summarized in Table 1).
(§2) Compounds that were selected as hits using the VSD assay were subsequently screened against the calcium permeable A2Q-stg and A2Q-C3 cell lines in a glutamate potency fold-shift assay using the calcium sensing dye Fluo-8 (AAT Bioquest cat #21080). This assay is used to measure how pretreatment with compounds shifts the EC50 of glutamate on A2Q-stg and A2Q-C3 cells. 30 μM of each compound was pre-incubated with the cells for 120 secs and then an 11-point glutamate CRC from 4 mM to 10 pM was applied to the cells for 180 sec. […] Greiner 384-pp round-bottom plates containing glutamate solutions were dispensed by hand using a multi-channel pipet at 5X final concentration. […] Sodium butyrate and DOX were added to the cells at 1 mM and 5 μg/mL, respectively, 24 hours before screening. A2Q-stg cells were induced with 10 μg/mL DOX. Cells were incubated O/N and washed 4 times in low calcium buffer on an ELX405CW liquid aspirator and dispenser (BioTek). Buffer was left in the wells and an equal amount of 4.6 μM (2X) Fluo-8 (AAT Bioquest cat #21080) solution with 2.5 mM probenecid was added and incubated on the cells at room temperature for 40 minutes. Probenecid was added to block dye efflux from the cells [29]. Dye was washed off with low calcium buffer using the ELX405CW (BioTek) and plates were immediately inserted into the FDSS (Hamamatsu). Fluorescence signal was collected at 1 Hz using Ex. 480±20 nm/Em. 540±40 nm. Baseline signal was collected for 10 seconds followed by addition of 20 μl of 2X compound for a final concentration of 30 μM. After 290 seconds, 10 μl of a 5X glutamate solution in high calcium buffer (10 mM HEPES, pH 7.4, 140 mM NaCl, 5 mM KCl, 1 mM MgCl2, 9 mM CaCl2, and 10 mM glucose) was added for 180 seconds.
(§3) These compound CRCs were applied to the cells 2 minutes before a 1mM glutamate stimulation. […] Normalized FDSS traces were curve fit to CRCs using the initial GLUslope (GLUslope1) in a 3–6 sec window after glutamate application. CRCs were also plotted for the traces’ area under the curve (AUC) in the GLUmaxmin window. […] Compounds were plotted as %max GLUslope against log [compound] and fit to a four-parameter logistical model as in the VSD.
(§4) Cells were loaded with Fluo-8 and excess dye was washed out. After 120 secs of pre-incubation with compound at concentrations ranging from 30 μM to 30 nM (Fig 4Bi), 1 mM glutamate was added (Fig 4Bii). In the calcium assay, 250 μM was used as the maxGLU dose because the GLUslope1 values decreased at higher concentrations of glutamate, making it the dose with the maximal GLUslope1 response. […] We measured GLUslope in three consecutive time windows, referred to as GLUslope1-3, because three phases were clearly detectable (Fig 4C). The final CRC curves were calculated from GLUslope1, obtained from the first 3–6 sec window.
(§5) The final compound CRC curves were calculated from GLUslope1. […] The AUC measures the accumulation of calcium instead of gating and sometimes produced a CRC fit when GLUslope1 could not derive an EC50 value.

GluA2 alone = conditions: published value; cited from earlier work
[2] = target: GluA2flip(Q)-GSG1L (A2Q-GSG cells) (Homo sapiens, UniProt P42262); assay: Calcium flux (Fluo-8) compound CRC assay on A2Q-GSG cells
GluA2flip(Q)-GSG1L (A2Q-GSG cells), sequence (P42262 25-883 isoform P42262-2 limits assumed): as the sequence (P42262 25-883 isoform P42262-2 limits assumed) above
GluA2flip(Q)-GSG1L (A2Q-GSG cells), sequence (Q6UXU4 whole entry partner): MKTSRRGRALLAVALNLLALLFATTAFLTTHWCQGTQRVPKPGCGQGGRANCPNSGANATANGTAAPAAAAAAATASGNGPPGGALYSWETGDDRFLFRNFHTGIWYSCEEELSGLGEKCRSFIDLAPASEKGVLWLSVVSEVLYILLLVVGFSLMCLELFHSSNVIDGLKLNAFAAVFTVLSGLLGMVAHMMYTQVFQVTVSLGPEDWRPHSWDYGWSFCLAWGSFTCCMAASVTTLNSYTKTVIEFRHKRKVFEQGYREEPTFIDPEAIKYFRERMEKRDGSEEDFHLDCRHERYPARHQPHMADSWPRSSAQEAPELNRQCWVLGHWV
From the text: as §1, §2, §3, §4, §5

[3] = target: GluA2flip(R)-stargazin (A2R-stg TetON HEK293 cells) (Homo sapiens, UniProt P42262, Q607R); assay: Voltage-sensitive dye (VSD) assay (primary screen, counter-screen, CRC) on A2R-stg cells; conditions: for CMPDmaxmin: max-min 8-100 s, only compound present; for BaselineReturn: max 250-255 s minus min 0-5 s; for Glumaxmin: max-min normalized value 301-380 s; for Glumaxmin / GluSlope: compound and glutamate present; for GluSlope: slope 310-315 s
GluA2flip(R)-stargazin (A2R-stg TetON HEK293 cells), sequence (P42262 25-883 isoform P42262-2 Q607R limits assumed): as the sequence (P42262 25-883 isoform P42262-2 limits assumed) above, with Q583R counted along it
GluA2flip(R)-stargazin (A2R-stg TetON HEK293 cells), sequence (Q9Y698 whole entry partner): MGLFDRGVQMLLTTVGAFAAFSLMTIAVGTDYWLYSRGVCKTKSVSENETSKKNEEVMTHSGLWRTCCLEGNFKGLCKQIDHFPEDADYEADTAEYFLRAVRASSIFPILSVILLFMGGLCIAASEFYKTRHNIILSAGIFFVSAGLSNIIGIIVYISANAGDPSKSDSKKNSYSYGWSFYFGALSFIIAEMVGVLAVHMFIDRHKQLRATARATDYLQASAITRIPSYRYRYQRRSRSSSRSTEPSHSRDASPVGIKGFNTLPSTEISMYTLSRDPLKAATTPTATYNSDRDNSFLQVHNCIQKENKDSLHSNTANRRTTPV
Method: Cell lines used in the VSD assays were TetON HEK293 cells. […] We used GluA2flip(R) TetON HEK cell clone #4 that doxycycline (DOX) dependently expresses GluA2flip(R) (A2R). The A2R cells were used as the base cell line to derive cell lines that co-express auxiliary subunits.
(§6) Greiner 384-pp round-bottom plates containing glutamate for the second add were dispensed by hand using a multi-channel pipet at 5X final concentration. A2R-stg cells were plated in 384-well BD PureCoat amine-coated plates (Corning Life Sciences) at 16k cells/well in DMEM medium supplemented with 10% heat-inactivated FBS and 100U/mL PenStrep antibiotic. […] Cells were incubated overnight (O/N) and washed 4 times in HBSS containing 20 mM HEPES, pH 7.4, on an ELX405CW liquid aspirator and dispenser (BioTek). Buffer was left in the wells and an equal amount of 2X FLIPR dye solution was added and incubated on the cells at room temperature for 45 min. Fluorescence signal was collected at 1 Hz using Ex. 480±20 nm/Em. 540±40 nm on a Hamamatsu Functional Drug Screening System 6000 (FDSS). Baseline signal was collected for 10 seconds followed by addition of 10 μl of 5X compound for a final concentration of 10 μM.
Hits were selected from this initial screen using 4 different criteria, which we termed CMPDslope, CMPDmaxmin, GLUslope, and GLUmaxmin. […] GLUslope is the fitted slope of the increase in fluorescence within 10 sec after adding glutamate. GLUmaxmin is the difference in the minimum and maximum value in fluorescence signal reached in the 100 sec window after adding glutamate. Compounds were classified as hits if they differed by 3 standard deviations of the mean for each criterion. Tier 1 hits were classified as those that hit in the GLUslope, GLUmaxmin, and CMPDmaxmin windows. Tier 2 hits were classified as compounds that hit in the GLUslope window and either the GLUmaxmin or CMPDmaxmin window. Tier 3 hits were classified as those that hit in only the GLUslope or the GLUmaxmin window. Tier 4 hits were classified as compounds that hit only in the CMPD window, CMPDslope or CMPDmaxmin. Hit selection was further narrowed using the criterion that their signal must return to near baseline values before entering the glutamate add window.
VSD concentration response curves (CRCs): After the above counter-screens, compounds that remained positive were moved forward to collect complete CRCs for A2R-stg and A2R-C3 cell lines. This assay was carried out in the same way as the VSD screening assay except a 10-point concentration curve, from 40 μM to 10 nM, was plated in triplicate for each compound on a single 384-well plate. Data were summarized by plotting them as %max GLUslope against log [compound] that was fit to a four-parameter logistical model. %max GLUslope is defined as a normalized GLUslope expressed as a percentage of the mean maximum GLUslope, defined as 100, where background mean vehicle control (VHLslope) were subtracted from both values on a per plate basis. Thus, %max GLU slope = (GLUslope-mean VHLslope/mean maxGLUslope-mean VHLslope).

GluA2flip(Q) (A2Q cells) = target: T1, GluA2flip(Q) (A2Q cells) (Homo sapiens, UniProt P42262); assay: Calcium flux (Fluo-8) compound CRC assay on A2Q cells; assay type: cell-based; conditions: CRC from GLUslope1; 1 mM glutamate; PAM; read-out: EC50 Ca2+ Sensing, A2Q
T1 construct: FLAG (C); expressed in transfected cells
T1 sequence (P42262 25-883 isoform P42262-2 limits assumed): as the sequence (P42262 25-883 isoform P42262-2 limits assumed) above

[4] = target: GluA2flip(R)-CNIH3 (A2R-C3 TetON HEK293 cells) (Homo sapiens, UniProt P42262, Q607R); assay: VSD assay (counter-screen, CRC) on A2R-C3 cells; conditions: for CMPDmaxmin: max-min 8-100 s; for BaselineReturn: max 250-255 s minus min 0-5 s; for Glumaxmin: max-min normalized value 301-380 s
GluA2flip(R)-CNIH3 (A2R-C3 TetON HEK293 cells), sequence (P42262 25-883 isoform P42262-2 Q607R limits assumed): as the sequence (P42262 25-883 isoform P42262-2 limits assumed) above, with Q583R counted along it
GluA2flip(R)-CNIH3 (A2R-C3 TetON HEK293 cells), sequence (Q8TBE1 whole entry partner): as the sequence (Q8TBE1 whole entry partner) above
From the text: Cell lines used in the VSD assays were TetON HEK293 cells. This was the parental cell line for all stable cell lines created. We used GluA2flip(R) TetON HEK cell clone #4 that doxycycline (DOX) dependently expresses GluA2flip(R) (A2R). The A2R cells were used as the base cell line to derive cell lines that co-express auxiliary subunits.
as §6
This assay was carried out in the same way as the VSD screening assay except a 10-point concentration curve, from 40 μM to 10 nM, was plated in triplicate for each compound on a single 384-well plate. Data were summarized by plotting them as %max GLUslope against log [compound] that was fit to a four-parameter logistical model. %max GLUslope is defined as a normalized GLUslope expressed as a percentage of the mean maximum GLUslope, defined as 100, where background mean vehicle control (VHLslope) were subtracted from both values on a per plate basis. Thus, %max GLU slope = (GLUslope-mean VHLslope/mean maxGLUslope-mean VHLslope).

For NS(=O)(=O)c1cc2c(cc1Cl)NC(C1CC3C=CC1C3)NS2(=O)=O (stereo not shown) [CTZ, cyclothiazide], the EC50 (GluA1-stargazin) is listed as 2 µM, the EC50 [1] is listed as 0.4 µM and the EC50 (GluA2 alone) is listed as 2.2 µM. For the same compound, the EC50 [2] was 1.6 µM, the EC50 [3] was 0.9 µM and the CMPDmaxmin ([3]; 1.95313e-6 M) was 0.01995 and 0.02197 and 0.02343 and 0.0204 and 0.02099. For the same compound, the BaselineReturn ([3]; 3.90625e-6 M) was 0.01694 and 0.02593 and 0.02261 and 0.02289 and 0.01533 and 0.01439, the CMPDmaxmin ([3]; 3.90625e-6 M) was 0.02654 and 0.02518 and 0.0211 and 0.01857 and the BaselineReturn ([3]; 7.8125e-6 M) was 0.02783 and 0.02662 and 0.0353 and 0.03259 and 0.02886 and 0.02588. The CMPDmaxmin ([3]; 7.8125e-6 M) was 0.0268 and 0.03115 and 0.03117 and 0.04146 and 0.02344 and 0.0309, the Glumaxmin ([3]; 7.8125e-6 M) was 0.1527 and 0.1804 and 0.2045 and 0.2207 and the GluSlope ([3]; 7.8125e-6 M) was 1.356e-5 and 1.3e-5 and 1.265e-5 and 1.674e-5 and 1.689e-5 and 1.461e-5. For the same compound, the CMPDmaxmin ([3]; 1.5625e-5 M) was 0.03354 and 0.03952 and 0.05587 and 0.04086 and 0.03876 and 0.03573, the Glumaxmin ([3]; 1.5625e-5 M) was 0.2558 and 0.3432 and 0.3162 and 0.3337 and the GluSlope ([3]; 1.5625e-5 M) was 1.634e-5 and 1.622e-5 and 1.53e-5 and 2.233e-5 and 2.059e-5 and 2.204e-5. For the same compound, the BaselineReturn ([3]; 3.125e-5 M) was 0.0693 and 0.04071 and 0.04552 and 0.04058 and 0.03606 and 0.0477, the CMPDmaxmin ([3]; 3.125e-5 M) was 0.05834 and 0.04067 and 0.04238 and 0.04539 and 0.03379 and 0.04106 and the Glumaxmin ([3]; 3.125e-5 M) was 0.4026 and 0.4044 and 0.3672 and 0.4286 and 0.4072. The CMPDmaxmin ([3]; 6.25e-5 M) was 0.04424 and 0.05275 and 0.04401 and 0.03573 and 0.03351 and 0.03343, the Glumaxmin ([3]; 6.25e-5 M) was 0.4053 and 0.4064 and 0.4608 and 0.469 and 0.4686 and 0.4908 and the GluSlope ([3]; 6.25e-5 M) was 1.974e-5 and 2.267e-5 and 2.556e-5 and 2.473e-5 and 2.4778e-5 and 2.559e-5. The CMPDmaxmin ([3]; 0.00025 M) was 0.0338 and 0.0291 and 0.02948 and 0.02774 and 0.02398 and 0.02262, the Glumaxmin ([3]; 0.00025 M) was 0.4981 and 0.5117 and 0.5708 and 0.5208 and 0.5482 and 0.5112 and the GluSlope ([3]; 0.00025 M) was 2.302e-5 and 2.432e-5 and 2.511e-5 and 2.509e-5 and 2.863e-5 and 2.554e-5. The CMPDmaxmin ([3]; 0.0005 M) was 0.04815 and 0.05143 and 0.02949 and 0.04218 and 0.05076 and 0.0521, the Glumaxmin ([3]; 0.0005 M) was 0.4797 and 0.5039 and 0.3566 and 0.5216 and 0.4987 and 0.5435 and the GluSlope ([3]; 0.0005 M) was 2.0723e-5 and 2.479e-5 and 1.376e-5 and 2.232e-5 and 2.492e-5 and 2.656e-5. It also gave an activity at 250 µM ([3]; HEK293, read-out: AVE %MAXCMPDslope, 0.00025 M, average of wells) of 28.2%, an activity at 500 µM ([3]; HEK293, read-out: AVE %MAXCMPDslope, 0.0005 M, average of wells) of 27.5% and an activity at […] ([3]; HEK293, read-out: AVE %MAXCMPDslope, […], average of wells) of 29%. It also gave an activity at 250 µM ([3]; HEK293, read-out: AVE %MAXslope, 0.00025 M, average of wells) of 71.3%, an activity at 500 µM ([3]; HEK293, read-out: AVE %MAXslope, 0.0005 M, average of wells) of 65.9% and an activity at […] ([3]; HEK293, read-out: AVE %MAXslope, […], average of wells) of 68.4%. The activity at 250 µM ([3]; HEK293, read-out: pctMAX, 0.00025 M, Glumaxmin as percentage MAX (vhl and glutamate controls)) was 55.4%, the activity at […] ([3]; HEK293, read-out: pctMAX, […], Glumaxmin as percentage MAX (vhl and glutamate controls)) was 44.5% and the activity at 250 µM ([3]; HEK293, read-out: pctMAXslope, 0.00025 M, GluSlope as percentage MAX) was 67.4%. For the same compound, the activity at […] ([3]; HEK293, read-out: pctMAXslope, […], GluSlope as percentage MAX) was 64.2%, the activity at 250 µM ([3]; HEK293, read-out: pctMAXslopeCMPD, 0.00025 M, CMPDSlope as percentage MAX) was 27.7% and the activity at 500 µM ([3]; HEK293, read-out: pctMAXslopeCMPD, 0.0005 M, CMPDSlope as percentage MAX) was 26.2%. It also gave an activity at […] ([3]; HEK293, read-out: pctMAXslopeCMPD, […], CMPDSlope as percentage MAX) of 28.9%, an EC50 (GluA2flip(Q) (A2Q cells)) of 1.9 µM and an EC50 [4] of 0.8 µM. The CMPDmaxmin ([4]; 1.95313e-6 M ligand, compound only, per well) was 0.02498 and 0.01841 and 0.01791 and 0.02774, the CMPDmaxmin ([4]; 3.90625e-6 M ligand, compound only, per well) was 0.02327 and 0.02311 and 0.02554 and 0.02077 and the GluSlope ([4]; 3.90625e-6 M ligand, slope of normalized value 310-315 s, compound+glutamate, per well) was 3.655e-6 and 4.544e-6 and 4.211e-6 and 5.143e-6 and 7.279e-6 and 5.643e-6. The BaselineReturn ([4]; 7.8125e-6 M ligand, per well) was 0.02655 and 0.02476, the CMPDmaxmin ([4]; 7.8125e-6 M ligand, compound only, per well) was 0.03133 and 0.03273 and the Glumaxmin ([4]; 7.8125e-6 M ligand, compound+glutamate, per well) was 0.1051 and 0.1531. For the same compound, the GluSlope ([4]; 7.8125e-6 M ligand, slope of normalized value 310-315 s, compound+glutamate, per well) was 1.084e-5 and 1.388e-5, the BaselineReturn ([4]; 7.8125e-6 M, per well) was 0.01945 and 0.0284 and 0.03375 and 0.02763 and the CMPDmaxmin ([4]; 7.8125e-6 M, only compound present, per well) was 0.02499 and 0.03299 and 0.03909 and 0.04405. The Glumaxmin ([4]; 7.8125e-6 M, compound and glutamate present, per well) was 0.1519 and 0.1861 and 0.161 and 0.1533, the GluSlope ([4]; 7.8125e-6 M, slope 310-315 s, compound and glutamate present, per well) was 1.427e-5 and 1.51e-5 and 1.46e-5 and 1.177e-5 and the BaselineReturn ([4]; 1.5625e-5 M, per well) was 0.04439 and 0.04696 and 0.04628 and 0.04829 and 0.04336 and 0.0478. For the same compound, the CMPDmaxmin ([4]; 1.5625e-5 M, only compound present, per well) was 0.04028 and 0.05159 and 0.051 and 0.04736 and 0.04942 and 0.04289, the Glumaxmin ([4]; 1.5625e-5 M, compound and glutamate present, per well) was 0.222 and 0.2669 and 0.2275 and the GluSlope ([4]; 1.5625e-5 M, slope 310-315 s, compound and glutamate present, per well) was 1.982e-5 and 1.758e-5 and 1.735e-5 and 2.35e-5 and 2.196e-5 and 2.323e-5. The Glumaxmin ([4]; 3.125e-5 M, compound and glutamate present, per well) was 0.3443 and 0.3512 and 0.3188 and 0.318 and 0.3671, the GluSlope ([4]; 3.125e-5 M, slope 310-315 s, compound and glutamate present, per well) was 2.5659e-5 and 2.5089e-5 and 2.398e-5 and 2.252e-5 and 2.824e-5 and 2.481e-5 and the BaselineReturn ([4]; 6.25e-5 M, per well) was 0.06773 and 0.07885 and 0.0633 and 0.06912 and 0.08153 and 0.08744. The CMPDmaxmin ([4]; 6.25e-5 M, only compound present, per well) was 0.07201 and 0.07489 and 0.07237 and 0.06864 and 0.0824 and 0.08958, the Glumaxmin ([4]; 6.25e-5 M, compound and glutamate present, per well) was 0.3694 and 0.3861 and 0.381 and 0.3994 and 0.4282 and 0.4362 and the GluSlope ([4]; 6.25e-5 M, slope 310-315 s, compound and glutamate present, per well) was 2.565e-5 and 2.689e-5 and 2.837e-5 and 2.784e-5 and 3.091e-5 and 2.855e-5. For the same compound, the CMPDmaxmin ([4]; 0.00025 M, only compound present, per well) was 0.06294 and 0.04965 and 0.05528 and 0.07959 and 0.04247 and 0.05305, the Glumaxmin ([4]; 0.0005 M, compound and glutamate present, per well) was 0.4488 and 0.457 and 0.483 and 0.5352 and 0.5162 and 0.5252 and the GluSlope ([4]; 0.0005 M, slope 310-315 s, compound and glutamate present, per well) was 2.6241e-5 and 2.3366e-5 and 3.012e-5 and 2.914e-5 and 2.692e-5 and 2.648e-5. For the same compound, the activity at 250 µM ([4]; HEK293, read-out: AVE %MAXCMPDslope, 0.00025 M, average for the concentration) was 20.3%, the activity at 500 µM ([4]; HEK293, read-out: AVE %MAXCMPDslope, 0.0005 M, average for the concentration) was 20.7% and the activity at […] ([4]; HEK293, read-out: AVE %MAXCMPDslope, […], average for the concentration) was 19.2%. For the same compound, the activity at 250 µM ([4]; HEK293, read-out: AVE %MAXslope, 0.00025 M, average for the concentration) was 68.1%, the activity at […] ([4]; HEK293, read-out: AVE %MAXslope, […], average for the concentration) was 63.8% and the activity at 500 µM ([4]; HEK293, read-out: pctMAX, 0.0005 M, Glumaxmin vs vhl and glutamate controls, per well) was 57.7%. It also gave an activity at 500 µM ([4]; HEK293, read-out: pctMAXslope, 0.0005 M, GluSlope vs vhl and glutamate controls, per well) of 67.5%, an activity at 250 µM ([4]; HEK293, read-out: pctMAXslopeCMPD, 0.00025 M, CMPDSlope vs vhl and glutamate controls, per well) of 18.6% and an activity at 500 µM ([4]; HEK293, read-out: pctMAXslopeCMPD, 0.0005 M, CMPDSlope vs vhl and glutamate controls, per well) of 18.6%. It also gave an activity at […] ([4]; HEK293, read-out: pctMAXslopeCMPD, […], CMPDSlope vs vhl and glutamate controls, per well) of 19.3%.
